Measurements published in US7138361B2, “Herbicidal heterocycles” (E. I. du Pont de Nemours and Company, priority 2000, dated 2006).

What was measured:
Type in all cases: in vivo
[1] = tested on: Surinam grass (Brachiaria decumbens); experiment: Test B postemergence; conditions: 13 to 15 days
Excerpt: (§1) Seeds selected from barnyardgrass (Echinochloa crus-galli), Surinam grass (Brachiaria decumbens), cocklebur (Xanthium strumarium), corn (Zea mays), crabgrass (Digitaria sanguinalis), giant foxtail (Setaria faberii), lambsquarters (Chenopodium album), morning glory (Ipomoea hederacea), pigweed (Amaranthus retroflexus), rice (Oryza saliva) and velvetleaf (Abutilon theophrasti) were planted and treated preemergence with test chemicals formulated in a non-phytotoxic solvent mixture which included a surfactant.
(§2) At the same time, plants selected from these crop and weed species and also blackgrass (Alopecurus myosuroides), wheat (Triticum aestivum) and wild oat (Avena fatua) were treated with postemergence applications of test chemicals formulated in the same manner. Plants ranged in height from 2 to 18 cm (1- to 4-leaf stage) for postemergence treatments. Plant species in the flooded paddy test consisted of rice (Oryza saliva), smallflower flatsedge (Cyperus difformis), duck salad (Heteranthera limosa) and barnyardgrass (Echinochloa crus-galli) grown to the 2-leaf stage for testing. Treated plants and controls were maintained in a greenhouse for 13 to 15 days, after which time all species were compared to controls and visually evaluated. Plant response ratings, summarized in Table B, are based on a scale of 0 to 100 where 0 is no effect and 100 is complete control. A dash (-) response means no test result.

[2] = tested on: barnyardgrass (Echinochloa crus-galli); experiment: Test B postemergence; conditions: 13 to 15 days
Excerpt: as §1, §2

[3] = tested on: blackgrass (Alopecurus myosuroides); experiment: Test B postemergence; conditions: 13 to 15 days
Excerpt: as §1, §2

corn (Zea mays) [4] = experiment: Test B postemergence; conditions: 13 to 15 days
Excerpt: as §1, §2

[5] = tested on: crabgrass (Digitaria sanguinalis); experiment: Test B postemergence; conditions: 13 to 15 days
Excerpt: as §1, §2

[6] = tested on: giant foxtail (Setaria faberii); experiment: Test B postemergence; conditions: 13 to 15 days
Excerpt: as §1, §2

[7] = tested on: lambsquarters (Chenopodium album); experiment: Test B postemergence; conditions: Rate 500 g/ha, scale 0 to 100, 0 is no effect, 100 is complete control, 13 to 15 days
Excerpt: as §1, §2

[8] = tested on: morning glory (Ipomoea hederacea); experiment: Test B postemergence; conditions: Rate 500 g/ha, scale 0 to 100, 0 is no effect, 100 is complete control, 13 to 15 days
Excerpt: as §1, §2

[9] = tested on: pigweed (Amaranthus retroflexus); experiment: Test B postemergence; conditions: Rate 500 g/ha, scale 0 to 100, 0 is no effect, 100 is complete control, 13 to 15 days
Excerpt: as §1, §2

[10] = tested on: velvetleaf (Abutilon theophrasti); experiment: Test B postemergence; conditions: Rate 500 g/ha, scale 0 to 100, 0 is no effect, 100 is complete control, 13 to 15 days
Excerpt: as §1, §2

[11] = tested on: wheat (Triticum aestivum); experiment: Test B postemergence; conditions: Rate 500 g/ha, scale 0 to 100, 0 is no effect, 100 is complete control, 13 to 15 days
Excerpt: as §1, §2

wild oat (Avena fatua) = experiment: Test B postemergence; conditions: Rate 500 g/ha, scale 0 to 100, 0 is no effect, 100 is complete control, 13 to 15 days
Excerpt: as §1, §2

[12] = tested on: Surinam grass (Brachiaria decumbens); experiment: Test B preemergence
Excerpt: as §1, §2

[13] = tested on: barnyardgrass (Echinochloa crus-galli); experiment: Test B preemergence
Excerpt: as §1, §2

[14] = tested on: cocklebur (Xanthium strumarium); experiment: Test B preemergence
Excerpt: as §1, §2

corn (Zea mays) [15] = experiment: Test B preemergence
Excerpt: as §1, §2

[16] = tested on: crabgrass (Digitaria sanguinalis); experiment: Test B preemergence
Excerpt: as §1, §2

[17] = tested on: giant foxtail (Setaria faberii); experiment: Test B preemergence
Excerpt: as §1, §2

[18] = tested on: lambsquarters (Chenopodium album); experiment: Test B preemergence
Excerpt: as §1, §2

[19] = tested on: morning glory (Ipomoea hederacea); experiment: Test B preemergence
Excerpt: as §1, §2

[20] = tested on: pigweed (Amaranthus retroflexus); experiment: Test B preemergence
Excerpt: as §1, §2

rice (Oryza saliva) [21] = experiment: Test B preemergence
Excerpt: as §1, §2

[22] = tested on: velvetleaf (Abutilon theophrasti); experiment: Test B preemergence
Excerpt: as §1, §2

[23] = tested on: barnyardgrass (Echinochloa crus-galli); experiment: Test C flooded paddy test; conditions: for Barnyardgrass plant response rating: Flooded Paddy, scale 0 to 100, 0 no effect, 100 complete control; for Plant response rating, Barnyardgrass: flooded paddy test, scale 0 to 100 (0 no effect, 100 complete control)
Experimental: (§3) At the same time, plants selected from these crop and weed species and also winter barley (Hordeum vulgare), blackgrass (Alopecurus myosuroides), canary grass (Phalaris minor), chickweed (Stellaria media), downy brome (Bromus tectorum), green foxtail (Setaria viridis), Italian ryegrass (Lolium multiflorum), wheat (Triticum aestivum), wild oat (Avena fatua) and windgrass (Apera spica-venti) were treated with postemergence applications of some of the test chemicals formulated in the same manner. Plants ranged in height from 2 to 18 cm (1- to 4-leaf stage) for postemergence treatments. Plant species in the flooded paddy test consisted of rice (Oryza saliva), smallflower flatsedge (Cyperus difformis), duck salad (Heteranthera limosa) and barnyardgrass (Echinochloa crus-galli) grown to the 2-leaf stage for testing. Treated plants and controls were maintained in a greenhouse for 12 to 14 days, after which time all species were compared to controls and visually evaluated. Plant response ratings, summarized in Table C, are based on a scale of 0 to 100 where 0 is no effect and 100 is complete control. A dash (-) response means no test result.

[24] = tested on: duck salad (Heteranthera limosa); experiment: Test C flooded paddy test; conditions: for Ducksalad plant response rating: Flooded Paddy, scale 0 to 100, 0 no effect, 100 complete control; for Plant response rating, Ducksalad: flooded paddy test, scale 0 to 100 (0 no effect, 100 complete control)
Experimental: as §3

rice (Oryza saliva) [25] = experiment: Test C flooded paddy test; conditions: for Rice plant response rating: Flooded Paddy, scale 0 to 100, 0 no effect, 100 complete control; for Plant response rating, Rice: flooded paddy test, scale 0 to 100 (0 no effect, 100 complete control)
Experimental: as §3

[26] = tested on: smallflower flatsedge (Cyperus difformis); experiment: Test C flooded paddy test; conditions: for Flatsedge plant response rating: Flooded Paddy, scale 0 to 100, 0 no effect, 100 complete control; for Plant response rating, Flatsedge: flooded paddy test, scale 0 to 100 (0 no effect, 100 complete control)
Experimental: as §3

[27] = Rate 125 g/ha, scale 0 (no effect) to 100 (complete control)
[28] = Rate 500 g/ha, scale 0 to 100, 0 is no effect, 100 is complete control
[29] = Preemergence, Rate 500 g/ha, scale 0 to 100, 0 no effect, 100 complete control
[30] = preemergence, Rate 125 g/ha, scale of 0 to 100 where 0 is no effect and 100 is complete control, 13 to 15 days

CCCCC(C)c1ccn(C2OCN(c3cccc(C(F)(F)F)c3)C2=O)n1 (centres unmarked) [Compound 98]
50: Barnyardgrass plant response rating ([23]; Rate 500 g/ha) | Rice plant response rating (rice (Oryza saliva) [25]; Rate 250 g/ha) | Rice plant response rating (rice (Oryza saliva) [25]; Rate 500 g/ha) | Plant response rating, Rice (rice (Oryza saliva) [25]; Rate 125 g/ha)
90: Plant response rating, Barnyardgrass [13, 29] | Plant response rating, Foxtail, Giant [17, 29] | Flatsedge plant response rating ([26]; Rate 250 g/ha) | Flatsedge plant response rating ([26]; Rate 500 g/ha)
80: Plant response rating, Lambsquarters [7] | Plant response rating, Flatsedge ([26]; Rate 125 g/ha)
0: Plant response rating, Surinam grass [1, 27] | Plant response rating, Surinam grass [1, 28] | Plant response rating, Barnyardgrass [2, 27] | Plant response rating, Barnyardgrass [2, 28] | Plant response rating, Blackgrass [3, 27] | Plant response rating, Blackgrass [3, 28] | Plant response rating, Corn (corn (Zea mays) [4]; [27]) | Plant response rating, Corn (corn (Zea mays) [4]; [28]) | Plant response rating, Crabgrass [5, 27] | Plant response rating, Foxtail, Giant [6, 27] | Plant response rating, Morningglory [8] | Plant response rating, Wheat [11] | Plant response rating, Wild Oat (wild oat (Avena fatua)) | Plant response rating, Surinam grass [12, 29] | Plant response rating, Surinam grass [12, 30] | Plant response rating, Barnyardgrass [13, 30] | Plant response rating, Cocklebur [14, 29] | Plant response rating, Cocklebur [14, 30] | Plant response rating, Corn (corn (Zea mays) [15]; [29]) | Plant response rating, Corn (corn (Zea mays) [15]; [30]) | Plant response rating, Crabgrass [16, 30] | Plant response rating, Foxtail, Giant [17, 30] | Plant response rating, Morningglory [19, 29] | Plant response rating, Morningglory [19, 30] | Plant response rating, Pigweed [20, 30] | Plant response rating, Rice (rice (Oryza saliva) [21]; [30]) | Plant response rating, Velvetleaf [22, 29] | Plant response rating, Velvetleaf [22, 30] | Plant response rating, Barnyardgrass ([23]; Rate 62 g/ha) | Plant response rating, Barnyardgrass ([23]; Rate 125 g/ha) | Ducksalad plant response rating ([24]; Rate 250 g/ha) | Ducksalad plant response rating ([24]; Rate 500 g/ha) | Plant response rating, Ducksalad ([24]; Rate 62 g/ha) | Plant response rating, Ducksalad ([24]; Rate 125 g/ha) | Plant response rating, Rice (rice (Oryza saliva) [25]; Rate 62 g/ha)
100: Plant response rating, Pigweed [9] | Plant response rating, Crabgrass [16, 29] | Plant response rating, Lambsquarters [18, 29]
40: Plant response rating, Pigweed [20, 29]
60: Plant response rating, Lambsquarters [18, 30] | Plant response rating, Flatsedge ([26]; Rate 62 g/ha)
20: Plant response rating, Crabgrass [5, 28] | Plant response rating, Foxtail, Giant [6, 28] | Plant response rating, Velvetleaf [10]
30: Plant response rating, Rice (rice (Oryza saliva) [21]; [29]) | Barnyardgrass plant response rating ([23]; Rate 250 g/ha)
